Data set [1] relates to P. falciparum D6 (Chloroquine Sensitive). Nature of the data set: Malaria model, chloroquine sensitive P. falciparum. The data set is classed as cell-based. On the procedure: (§1) The compounds were tested in a malaria model using both chloroquine sensitive and multidrug resistant P. falciparum. The malaria model was the same as published in JAC Advance Access published online on Jul. 30, 2008, Journal of Antimicrobial Chemotherapy, doi:10.1093/jac/dkn315, the contents of which are hereby incorporated by reference, and the data is summarized in the table below.
(§2) Briefly, the assay involves exposing both chloroquine sensitive and multidrug resistant P. falciparum to the compounds. After one hour of exposure to the highest concentration of the compound, followed by removal of the compound, the growth of all stages of P. falciparum was observed. The reduction in the growth stages was then compared with untreated control parasites. […] The presence of strong inhibition (defined herein as 10% growth) of all parasite stages was evaluated when the parasites were exposed to various concentrations of various compounds.

In data set [2] the test system is P. falciparum Dd2 (Multidrug Resistant). Nature of the data set: Malaria model, multidrug resistant P. falciparum. Type of data set: cell-based. On the procedure: as §1, §2
The test system of data set [3] is ang-2 mRNA. The data set is described as follows: Quantitative reverse transcription-PCR for ang-2 in bEnd.3 cells. As to conditions: 10 μM, 6.5 hours. Type of data set: cell-based, murine. The protocol:
bEnd.3 cells were seeded equally into six T-75 flasks and 24 hours later were treated with 0, 1, 5, 10, 15, and 20 μM concentrations of gentian violet (Sigma-Aldrich, no. G2039) in ethanol for 6.5 hours. RNA was extracted and purified using TRI reagent (Sigma-Aldrich, T9424) and measured using spectrophotometer (Perkin-Elmer UV/VIS, Wellesley, Mass.). RNA (1 μg) was used for DNase Amplification (Invitrogen, no. 18068-015, Carlsbad, Calif.) followed by first-strand synthesis for reverse transcription-PCR (Invitrogen SuperScript, no. 12371-019). 96-well Optical Reaction Plate (ABI PRISM, no. 128, Applied Biosystems, Foster City, Calif.) was used for the reverse transcription-PCR reaction. A measure of 2.5 μl of template, which had been diluted 1:10 in crosslinked water, was used in each well and the experiment was performed in triplicate. Ang pt2 (Applied Biosystems, Taqman Gene Expression Assay, Mm00545822_ml) and 18S (Applied Biosystems Taqman Gene Expression Assay, Hs99999901_sl) primers were used along with crosslinked molecular grade water (Cellgro, Mediatech, Inc., Herndon, Va.) and master mix (Applied Biosystems TaqMan Fast Universal PCR Master Mix (2^x)). The reaction was run on the 7900 Applied Biosystems Reader for Absolute Quantification for 96-well plates. C values were analyzed by ΔΔCt method, and the standard error of the mean was calculated (FIG. 3b). The same protocol was used for treatment with brilliant green (Sigma, no. B6756), except that the concentrations used were 0, 0.1, 0.25, 0.5, and 0.75 μM (FIG. 3a).

In data set [4] the test system is Leishmania amazonensis. Nature of the data set: Leishmaniasis model, in vitro promastigotes, parasites/mL. Particulars: for activity in first experiment: 1 and 0.1 mcM (ethanol 0.1 and 0.01%). Type of data set: cell-based. The protocol:
The experiments were started using water as a solvent for the triarylmethanes (TPM, standing for triphenylmethane). However, water was not an effective solvent, so ethanol was substituted. Ethanol is toxic to leishmania, so a control group was tested with a higher ethanol concentration than that present on the TPM groups.
Each of FIGS. 4-7 has five or six groups with 50, 10, 1 and 0.1 mcM (micromolar) of TPMs (1, 2, 3 and 5) in ethanol, and two control groups: Ethanol 5% (50 mcM) and positive control.
The number of parasites was counted only after 48 hours. Again, an ethanol control at 0.1% was used.
The IC50 was calculated by the method described by Hills et al. (18) and Huber and Koella (19). Briefly, Hills proposed finding two concentrations, X1 and X2, such that the parasite density, Y1, at concentration X1 (and all lower concentrations) was more than half of the density found in the control, Y0, and that the parasite density, Y2, at concentration X2 (and all higher concentrations) was less than half of Y0. The IC50 was then found by linear extrapolation between X1 and X2: log(IC50)=log(X1)|[(Y1−Y0/2)/(Y1−Y2)][ log(X2)−log(X1)].
Compounds TPM 6 (MW=400.60), TPM 7 (MW=672.86), TPM 9 (MW=521.76) and TPM 10 (MW=662.95) were evaluated with the same methodology. They were tested using a maximum of 1% of ethanol in each treatment group. The ethanol control was also evaluated with the same concentration (1%).
The treatment groups were TPM 6 at a dosage of 0.05; 0.01; 0.005 and 0.001 mcM.

Data set [5] has as its system T. brucei. The data set is described as follows: Parasitemia in mice injected with T. brucei. Type of data set: in vivo. The protocol:
In one study, the parasite was T. brucei. Mice were injected with parasites (5,000 parasites/mouse), and injected (s.c) with imipramine blue (1 mg/mice/day) starting from the day the mice were injected with parasites. The parasitemia level in blood was counted on each following day.
The experiment was repeated with IV administration of imipramine blue (100 μg of imipramine blue). […] Accordingly, it is important to find a therapeutic window (where treatment of parasitemia can be effected, without unwanted toxic effects). This therapeutic window is in the range of between about 150 and 250 μg.

Data set [6] concerns myeloma cells. Nature of the data set: AnnexinV staining and cell cycle analysis by flow cytometry. Type of data set: cell-based. On the procedure:
(§3) Imipramine blue was obtained from the department of dermatology, Emory University. MTT assays for myeloma cells (MM.1S, MM.1R, RPMI8226, and U266) were used to evaluate the cell viability. AnnexinV staining and cell cycle analysis was done by flow cytometry to assess the level of apoptosis and analyze cell cycle arrest. Western blotting was performed using antibodies to analyze the impact of imipramine blue on various targets. Bone marrow from myeloma patients were obtained with consent from the Winship Cancer Institute.

Data set [7] has as its system leukemia and lymphoma cell lines. The data set is described as follows: Cell growth inhibition in leukemia and lymphoma cell lines. The data set is classed as cell-based.
For data set [8], the system named is myeloma cells. The data set is described as follows: Western blotting of myeloma cells. The data set is classed as cell-based. On the procedure: as §3
In general terms: A western blot detects proteins with antibodies after separation by electrophoresis.

In data set [9] the test system is CD38 positive population of primary cells from myeloma patients. The data set is described as follows: Primary cells from myeloma patients, cell killing. The data set is classed as cell-based, human. As to conditions: alone as a single agent or in combination with bortezomib. The protocol:
as §3

A short description of data set [10]: ESR spectrum with superoxide dismutase. Particulars: room temperature ESR, conditions as in Li et al. The protocol: Li used ESR to confirm the production of NADPH-dependent.O2—by isolated endosomes (Li et al., Molecular and Cellular Biology, January 2006, p. 140-154, 26(1):140-154 (2006)). ESR assays were conducted at room temperature using a Bruker model EMX ESR spectrometer (Bruker). Vesicular fractions from each sample were mixed with the spin trap, 50 mM 5,5-dimethyl-1-pyrroline N-oxide (DMPO), in a total volume of 500 μl of PBS, pH 7.4. This solution contained iminodiacetic acid-chelating resin (10 ml/liter; Sigma-Aldrich). The reaction was initiated by adding NADPH to 100 μM and was immediately placed into the ESR spectrometer. DMPO-hydroxyl radical adduct formation was assayed for 10 min. Instrument settings were as follows: receiver gain, 1×10^6; modulation frequency, 100 kHz; microwave power, 40.14 mW; modulation amplitude, 1.0 G; and sweep rate, 1 G/s.

Data set [11] has as its system myeloma cells (MM.1S, MM.1R, RPMI8226, and U266). Nature of the data set: MTT cell viability assay, myeloma cells. The data set is classed as cell-based. The protocol: as §3
In data set [12] the test system is HIF2a. The data set is described as follows: HIF2a expression model (quantitative RT-PCR). Type of data set: cell-based. As to conditions: WM35 PKB cells, 5 micromolar, 24 hours. On the procedure: In this expression model, WM35 PKB cells are exposed to 5 micromolar of test compounds for 24 hours. At the end of this period, cells are harvested for RNA, which is then reverse transcribed into cDNA, and levels of HIF2a message are quantified using quantitative RT-PCR and corrected for a housekeeping RNA message.

For data set [13], the system named is bloodstream form of T. brucei. The data set is described as follows: Bloodstream form of T. brucei, live cells, overnight treatment. The data set is classed as cell-based. Particulars: at 500 nm. On the procedure: These and other compounds were tested on live cells.
The experiment was conducted with one million cells of the bloodstream form of T. brucei. After over night treatment with different compounds (at concentrations of 50 and 100 μmolar), cells were counted and plotted with controls.

[14] abbreviates: 48 hours, linear extrapolation method of Hills.
Setting [15] is: summary table of experiments 1-4.

Consider six molecules from patent US9358226B2, “Triarylmethane analogs and their use in treating cancers” (Emory University, priority 2007, dated 2016).

Where two headings read alike, the source gives them in different places.

The term IC50 denotes the point on the concentration scale where inhibition reaches its midpoint. Take `CCN(CC)CCCC(C)Nc1ccnc2cc(Cl)ccc12` (stereo not drawn) [Chloroquine, reference compound]: the IC50 in data set [1] (Plasmodium falciparum, D6, read-out: IC50 (nM) vs P. falciparum D6 (Chloroquine Sensitive)) came to 7.9 nM; in [2] (Plasmodium falciparum, DD2, read-out: IC50 (nM) vs P. falciparum Dd2 (Multidrug Resistant)), 140 nM.
Turning to `c1ccc([I+]c2ccccc2)cc1` [DPI, diphenyliodonium], the “decrease in ang-2 expression compared to control” value in data set [3] was 80%.
On to `CCN(CC)c1ccc(C(=C2C=C3CCc4ccccc4N(CCCN(C)C)C3=CC2)c2ccc(N(CC)CC)cc2)cc1` [TPM 2], for which the “activity in first experiment” value in data set [4] is reported as “have shown activity”. The molecule further returned a growth inhibition in data set [4] (1 mcM, 48 hours) of 72%. Besides, the values for the IC50 in data set [4] (setting [14]) and in data set [4] (setting [15]) were about 0.6 µM and 0.6 µM, respectively. Moreover, the “number of parasite/ml of blood versus control” value in [5] (s.c. 1 mg/mice/day from day of infection) is “slightly less”. Besides, the “survival of infected mice” value in data set [5] (s.c. 1 mg/mice/day from day of infection, 5,000 parasites/mouse) is recorded as “died at day 4”.
Take `CCN(CC)c1ccc(C(c2ccc(N(CC)CC)cc2)=c2ccc3c(c2)CCc2ccccc2[N+]=3CCCN(C)C)cc1` [TPM 2]: the cell cycle profile entry in [6] (MM.1S cells) was “induces both cell cycle arrests as well as apoptosis”. Besides, the “apoptosis by annexin V staining” value in data set [6] (similar concentrations (6 uM to 10 μM)) is listed as “induced to undergo apoptosis”. Also, the cell growth result in [7] was “induced cell growth inhibition”. Also, the “cleavage of procaspases (caspase 8, 9, 3 and PARP)” value in [8] (0.5 μM to 10 μM, about 48 hrs) was “extensively cleaved”. Besides, in data set [8] (MM.1S), the phos-AKT level entry is “not significantly reduced”; the “phos-p53 and GADD45 levels” value is reported as “upregulaed”. The half-inhibitory concentration (IC50) in data set [1] (Plasmodium falciparum, D6; read-out: IC50 (nM) vs P. falciparum D6 (Chloroquine Sensitive)) was about 2500 nM. Further, the “cell killing of CD38 positive population” value in [9] was “very significant cell killing”. Besides, the “radical formation with superoxide (ESR)” value in [10] is recorded as “appear to form a radical by reacting with superoxide”. Besides, the half-maximal inhibitory concentration (IC50) in [2] (Plasmodium falciparum, DD2; read-out: IC50 (nM) vs P. falciparum Dd2 (Multidrug Resistant)) is 826 nM. For the same molecule, the “growth advantage by cytokines IL-6 and IGF1” value in data set [11] (MM.1S cells) is reported as “overcomes the growth advantage”. The “combination with bortezomib or perifosine” value in data set [11] (myeloma cells) is on record as “additive benefit in combination”. The growth inhibition result in data set [11] (treated up to 72 hrs, between 6 uM to 10 μM) is recorded as “more than 80%”. Moreover, the “inhibition of HIF2a expression” value in [12] was “around 90%”. Besides, the “cell toxicity to trypanosome toxicity” value in data set [13] was “favorable”. Besides, in [5] (1 mg IV), the lethality to mice entry is reported as “killed the mice”. Besides, the decrease in parasitemia in [5] (IV, 100 μg, mouse model) amounted to 70%.
Regarding `CCN(CC)c1ccc(C(=C2C=CC3C(C[C@H](N)C(=O)O)=CNC3=C2)c2ccc(N(CC)CC)cc2)cc1` (stereo partly drawn) [TPM 5], in data set [4], the “activity in first experiment” value was “did not”.
In the case of `CCN(CC)c1ccc(C(=C2C=CC(C)C=C2)c2ccc(N(CC)CC)cc2)cc1` (stereo not drawn) [TPM 6], the IC50 is 61.7 nM in data set [1] (D6; read-out: IC50 (nM) vs P. falciparum D6 (Chloroquine Sensitive)), 48.9 nM in data set [2] (Dd2; read-out: IC50 (nM) vs P. falciparum Dd2 (Multidrug Resistant)), about 0.02 µM in [4] (setting [14]) and 0.02 µM in data set [4] (setting [15]). For the same molecule, the “active / inactive in the malaria assay” value in data set [1] (summary over D6 and Dd2 strains) is given as “active”. Further, the “relative activity among compounds tested” value in data set [4] is given as “most active compound”. Besides, the growth inhibition in data set [4] (0.01 mcM, 48 hours) is listed as 41%; in data set [4] (0.05 mcM, 48 hours) it was 59%; in data set [4] (0.1 mcM, 48 hours), 98%; in data set [4] (0.5 mcM, 48 hours), 98%; in [4] (1 mcM, 48 hours) it was 100%; in data set [4] (5 mcM, 48 hours) it was 100%.
